# Reference: patent publication US10071035B2, “Use of benzyl alcohol as a defoaming agent” (Colgate-Palmolive Company, priority 2014, dated 2018)
# Legend:
# [1] = Time taken to defoam (batch to settle) under vacuum during manufacture of oral care composition; settings: composition B (0.3% benzyl alcohol) versus comparative composition A, 4 kg batch
# Experimental: The compositions were manufactured as follows: • 1. The sorbitol was added to an SS vessel having a stirrer. The stirrer was started. The sorbitol was heated to 60-62° C. • 2. Half of the purified water was added to the SS vessel. • 3. The copolymer of methyl vinyl ether and maleic acid was added to the SS vessel and mixed. Mixing was continued until the copolymer of methyl vinyl ether and maleic acid was fully dispersed. • 4. The NaOH (50% solution) was added to the SS vessel and mixed for 5 minutes. • 5. The remaining purified water was added to the SS vessel. • 6. […] The pre-mix was added to the SS vessel. • 7. The resulting gel was mixed for 20 minutes at a temperature of 64-67° C. • 8. The gel was transferred to a mixer. The thickener silica was added to the mixer and mixed for 5 minutes. The mixer used in the present experiment was an Alpro mixer. • 9. The abrasive silica and titanium dioxide were added to the mixer and mixed under vacuum. Mixing was continued until the temperature reached 46° C. • 10. At 46° C., the flavor, triclosan and sodium lauryl sulfate granules were added to the mixture. If used, benzyl alcohol was also added at this stage. • 11. The resulting mixture was then stirred for 2 minutes. Vacuum was then applied. The time taken for the batch to settle was observed. • 12. After allowing the batch to settle, mixing was continued for a further 8 minutes. […]
# [2] = Defoaming of foam generated from aqueous 0.2% sodium lauryl sulfate solution in measuring cylinders; type: physicochemical; settings: three minutes after addition of 1 mL aliquot of defoaming agent to 0.2% SLS foam
# Experimental: Three aqueous solutions of 0.2% sodium lauryl sulfate were prepared in 250 mL measuring cylinders by diluting 5 g of a 2% sodium lauryl sulfate stock solution with water to give a total volume of 50 mL. The solutions were agitated by swirling the measuring cylinders 12 times to generate foam. The volumes of foam generated were recorded. A 1 mL aliquot of defoaming agent was then added to each of the solutions at a rate of 0.01 mL/s. The defoaming agents investigated were benzyl alcohol, methanol, and water. Three minutes after the addition of the defoaming agent, the volumes of foam present in each vessel were recorded.
Structure (SMILES),reduction of the defoaming time [1],reduction of the defoaming time ([1]; listed as benzyl alcohol),% reduction in foam after addition of defoaming agent [2]
"OCc1ccccc1 [Benzyl alcohol, benzyl alcohol]",50%,about 50%,59.1%
"CO [Methanol, methanol, reference compound]",–,–,74.5%
